Consider 21 compounds from patent publication US9670227B2, “Thienopyrimidine derivatives, a process for their preparation and pharmaceutical compositions containing them” (LES LABORATOIRES SERVIER, priority 2013, dated 2017).

One may read the IC50 as the concentration that gives 50% inhibition.

Sequence of Mcl-1 protein (Q07820 whole entry): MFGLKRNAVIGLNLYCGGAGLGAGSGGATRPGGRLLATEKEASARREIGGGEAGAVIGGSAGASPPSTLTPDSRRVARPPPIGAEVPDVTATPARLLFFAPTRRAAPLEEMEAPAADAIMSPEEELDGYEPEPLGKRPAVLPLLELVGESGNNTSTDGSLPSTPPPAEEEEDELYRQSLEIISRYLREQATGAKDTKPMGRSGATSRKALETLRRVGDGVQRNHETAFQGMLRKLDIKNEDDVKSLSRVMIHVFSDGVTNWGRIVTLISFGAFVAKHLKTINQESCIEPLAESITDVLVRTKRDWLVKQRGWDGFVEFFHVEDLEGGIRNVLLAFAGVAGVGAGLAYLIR

In one test the target is Mcl-1 protein (UniProtKB primary accession number: Q07820) (Homo sapiens, UniProt Q07820). Description: Inhibition of Mcl-1 by fluorescence polarisation, Method 1. The note with it: fluorescence polarisation test; Method 1, or Method 2 where the value is underlined (underlining not visible); read-out: IC50 (M) Mcl-1 FP. It counts as binding. A digest of the protocol:
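FP readout of relative binding potency. Mcl-1 5 nM final, fluorescein-labelled ligand 1 nM final; buffer 10 mM HEPES, 150 mM NaCl, 0.05% Tween 20, pH 7.4; 11-pt dilution series, 5% DMSO final.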
`CCN(C)CCOc1ccc(-c2c(-c3ccc(F)cc3)sc3ncnc(OC(Cc4ccccc4OCc4ccnc(-c5ccccc5F)n4)C(=O)OCC(=O)N(C)C)c23)c(C)c1Cl` [Example 822, 2-(dimethylamino)-2-oxoethyl (2R)-2-{[(5Sa)-5-(3-chloro-4-{2-[ethyl(methyl)amino]ethoxy}-2-methylphenyl)-6-(4-fluorophenyl)thieno[2,3-d]pyrimidin-4-yl]oxy}-3-(2-{[2-(2-fluorophenyl)pyrimidin-4-yl]methoxy}phenyl)propanoate]: the concentration for half-maximal inhibition (IC50) came out at 2.4e-06 M.

Consider `Cc1oc(=O)oc1COC(=O)C(Cc1ccccc1OCc1ccnn1C(C)(C)C)Oc1ncnc2sc(-c3cccc(F)c3F)c(-c3ccc(OCCN(C)C)c(Cl)c3C)c12` [Example 824, (5-methyl-2-oxo-1,3-dioxol-4-yl)methyl (2R)-3-{2-[(1-tert-butyl-1H-pyrazol-5-yl)methoxy]phenyl}-2-{[(5Sa)-5-{3-chloro-4-[2-(dimethylamino)ethoxy]-2-methylphenyl}-6-(2,3-difluorophenyl)thieno[2,3-d]pyrimidin-4-yl]oxy}propanoate], for which the IC50 came out at 3.82e-08 M.

Regarding `COc1ccccc1CC(Oc1ncnc2sc(-c3ccc(F)cc3)c(-c3ccc(OC)c(Cl)c3C)c12)C(=O)O` [Example 840, (2R)-2-{[(5Sa)-5-(3-chloro-4-methoxy-2-methylphenyl)-6-(4-fluorophenyl)thieno[2,3-d]pyrimidin-4-yl]oxy}-3-(2-methoxyphenyl)propanoic acid], the 50% inhibitory concentration (IC50) is 1.28e-07 M.

The same test, now with this note: fluorescence polarisation test; Method 2 values are underlined in the patent (underlining not visible here); read-out: IC50 (M) Mcl-1 FP.
Regarding `Cc1ccncc1-c1nccc(COc2ccccc2CC(Oc2ncnc3sc(-c4ccc(F)cc4)c(-c4ccc(OCCN5CCN(C)CC5)c(Cl)c4C)c23)C(=O)O)n1` [Example 123, (2R)-2-{[(5Sa)-5-{3-chloro-2-methyl-4-[2-(4-methylpiperazin-1-yl)ethoxy]phenyl}-6-(4-fluorophenyl)thieno[2,3-d]pyrimidin-4-yl]oxy}-3-(2-{[2-(4-methylpyridin-3-yl)pyrimidin-4-yl]methoxy}phenyl)propanoic acid], the half-maximal inhibitory concentration (IC50) is 4.3e-09 M.

For the compound `CC(=O)NCc1ccccc1CC(Oc1ncnc2sc(-c3ccco3)c(-c3ccc(OCCN4CCN(C)CC4)c(Cl)c3C)c12)C(=O)O` [Example 356, (2R)-3-{2-[(acetylamino)methyl]phenyl}-2-{[(5Sa)-5-{3-chloro-2-methyl-4-[2-(4-methylpiperazin-1-yl)ethoxy]phenyl}-6-(furan-2-yl)thieno[2,3-d]pyrimidin-4-yl]oxy}propanoic acid], the IC50 was found to be 1.1e-08 M.

`COc1ccccc1CC(Oc1ncnc2sc(-c3ccco3)c(-c3ccc(OCCN4CCN(c5ccccc5)CC4)c(Cl)c3C)c12)C(=O)O` [Example 325, (2R)-2-{[(5Sa)-5-{3-chloro-2-methyl-4-[2-(4-phenylpiperazin-1-yl)ethoxy]phenyl}-6-(furan-2-yl)thieno[2,3-d]pyrimidin-4-yl]oxy}-3-(2-methoxyphenyl)propanoic acid]: the IC50 amounted to 5.2e-08 M.

Take `COc1nccc(COc2ccccc2CC(Oc2ncnc3sc(-c4ccc(F)o4)c(-c4ccc(OCCN5CCN(C)CC5)c(Cl)c4C)c23)C(=O)O)n1` [Example 176, (2R)-2-{[(5Sa)-5-{3-chloro-2-methyl-4-[2-(4-methylpiperazin-1-yl)ethoxy]phenyl}-6-(5-fluorofuran-2-yl)thieno[2,3-d]pyrimidin-4-yl]oxy}-3-{2-[(2-methoxypyrimidin-4-yl)methoxy]phenyl}propanoic acid]: the concentration for half-maximal inhibition (IC50) is 3.1e-09 M.

On to `COc1ncc(Br)c(COc2ccccc2C[C@@H](Oc2ncnc3sc(-c4ccc(F)cc4)c(-c4ccc(OCCN5CCN(C)CC5)c(Cl)c4C)c23)C(=O)O)n1` [Example 99, (2R)-3-{2-[(5-bromo-2-methoxypyrimidin-4-yl)methoxy]phenyl}-2-{[(5Sa)-5-{3-chloro-2-methyl-4-[2-(4-methylpiperazin-1-yl)ethoxy]phenyl}-6-(4-fluorophenyl)thieno[2,3-d]pyrimidin-4-yl]oxy}propanoic acid], for which the IC50 worked out at 2e-08 M.

The same test, now with this note: fluorescence polarisation; Method 1, or Method 2; read-out: IC50 (M) Mcl-1 FP.
Consider `COc1nccc(COc2ccccc2CC(Oc2ncnc3sc(-c4ccc(F)c(OCCN5CCN(C)CC5)c4)c(-c4ccc(OC)c(Cl)c4C)c23)C(=O)O)n1` [Example 698, (2R)-2-{[(5Sa)-5-(3-chloro-4-methoxy-2-methylphenyl)-6-{4-fluoro-3-[2-(4-methylpiperazin-1-yl)ethoxy]phenyl}thieno[2,3-d]pyrimidin-4-yl]oxy}-3-{2-[(2-methoxypyrimidin-4-yl)methoxy]phenyl}propanoic acid], for which the IC50 was determined as 7.3e-09 M.

Turning to `Cc1c(-c2c(C#N)sc3ncnc(OC(Cc4ccccc4)C(=O)O)c23)ccc(OCCN2CCN(C)CC2)c1Cl` [Example 521, (2R)-2-[((5Sa)-5-{3-chloro-2-methyl-4-[2-(4-methylpiperazin-1-yl)ethoxy]phenyl}-6-cyanothieno[2,3-d]pyrimidin-4-yl)oxy]-3-phenylpropanoic acid], the IC50 came out at 2.4e-07 M.

`CCc1sc2ncnc(OC(Cc3ccccc3)C(=O)O)c2c1-c1cc(CN2CCN(C)CC2)c(O)c(Cl)c1C` [Example 430, (2R)-2-[((5Sa)-5-{3-chloro-4-hydroxy-2-methyl-5-[(4-methylpiperazin-1-yl)methyl]phenyl}-6-ethylthieno[2,3-d]pyrimidin-4-yl)oxy]-3-phenylpropanoic acid]: the IC50 is 1.4e-07 M.

Take `CCOC(=O)C(Cc1ccccc1OCc1ccnn1C(C)(C)C)Oc1ncnc2sc(-c3ccc(F)cc3)c(-c3ccc(OCCN4CCN(C)CC4)c(Cl)c3C)c12` [Example 791, ethyl (2R)-3-{2-[(1-tert-butyl-1H-pyrazol-5-yl)methoxy]phenyl}-2-{[(5Sa)-5-{3-chloro-2-methyl-4-[2-(4-methylpiperazin-1-yl)ethoxy]phenyl}-6-(4-fluorophenyl)thieno[2,3-d]pyrimidin-4-yl]oxy}propanoate]: the IC50 is 2.26e-06 M.

On to `CCc1sc2ncnc(OC(Cc3ccccc3)C(=O)O)c2c1-c1ccc(O)cc1C` [Example 447, (2R)-2-{[6-ethyl-(5Sa)-5-(4-hydroxy-2-methylphenyl)thieno[2,3-d]pyrimidin-4-yl]oxy}-3-phenylpropanoic acid], for which the IC50 was 6.8e-08 M.

On to `COc1ccccc1CC(Oc1ncnc2sc(-c3ccc(F)cc3)c(-c3ccc(OCCN4CCN(C)CC4)c(Cl)c3C)c12)C(=O)OCC(F)(F)F` [Example 641, 2,2,2-trifluoroethyl (2R)-2-{[(5Sa)-5-{3-chloro-2-methyl-4-[2-(4-methylpiperazin-1-yl)ethoxy]phenyl}-6-(4-fluorophenyl)thieno[2,3-d]pyrimidin-4-yl]oxy}-3-(2-methoxyphenyl)propanoate], for which the half-inhibitory concentration (IC50) amounted to 9.6e-07 M.

`COc1ccccc1CC(Oc1ncnc2sc(-c3ccc(C(N)=O)o3)c(-c3ccc(OCCN4CCN(C)CC4)c(Cl)c3C)c12)C(=O)O` [Example 581, (2R)-2-{[6-(5-carbamoylfuran-2-yl)-(5Sa)-5-{3-chloro-2-methyl-4-[2-(4-methylpiperazin-1-yl)ethoxy]phenyl}thieno[2,3-d]pyrimidin-4-yl]oxy}-3-(2-methoxyphenyl)propanoic acid]: the IC50 was 4.2e-07 M.

In the case of `CC#Cc1sc2ncnc(OC(Cc3ccccc3OC)C(=O)O)c2c1-c1cc(C)c(OCCN2CCN(C)CC2)c(Cl)c1C` [Example 474, (2R)-2-{[(5Ra)-5-{3-chloro-2,5-dimethyl-4-[2-(4-methylpiperazin-1-yl)ethoxy]phenyl}-6-(prop-1-yn-1-yl)thieno[2,3-d]pyrimidin-4-yl]oxy}-3-(2-methoxyphenyl)propanoic acid], the 50% inhibitory concentration (IC50) was found to be 5.5e-07 M.

Consider `CCc1sc2ncnc(O[C@H](Cc3ccccc3OC)C(=O)O)c2c1-c1ccc(O)c(Cl)c1C` (single isomer, unassigned) [Example 682], for which the IC50 amounted to 5.1e-07 M.

Still in this test, the particulars now being: partial inhibitors; @ 10 uM test compound.
On to `COc1ccccc1C[C@@H](Oc1ncnc2sc(-c3ccc(F)cc3)c(-c3ccc(OCCN4CCN(C)CC4)c(Cl)c3C)c12)C(=O)Oc1ccc2c(c1)CCC2` [Example 640, 2,3-dihydro-1H-inden-5-yl (2R)-2-{[(5Sa)-5-{3-chloro-2-methyl-4-[2-(4-methylpiperazin-1-yl)ethoxy]phenyl}-6-(4-fluorophenyl)thieno[2,3-d]pyrimidin-4-yl]oxy}-3-(2-methoxyphenyl)propanoate], for which the “percentage fluorescence polarisation inhibition, Mcl-1 FP” value amounted to 42.4% @ 10 uM.

As for `CC#Cc1sc2ncnc(O[C@H](Cc3ccccc3OC)C(=O)O)c2c1-c1cc(N2CCN(C)CC2)c(OC)c(Cl)c1C` [Example 472, (2R)-2-({(5Ra)-5-[3-chloro-4-methoxy-2-methyl-5-(4-methylpiperazin-1-yl)phenyl]-6-(prop-1-yn-1-yl)thieno[2,3-d]pyrimidin-4-yl}oxy)-3-(2-methoxyphenyl)propanoic acid], the “percentage fluorescence polarisation inhibition, Mcl-1 FP” value stood at 13.05% @ 10 uM.

The same test, now with this note: partial inhibitors; @ 1000 uM test compound.
`CCOC(=O)[C@@H](Cc1ccccc1OC)Oc1ncnc2sc(-c3ccsc3)c(-c3ccc(O)c(Cl)c3C)c12` [Example 636, ethyl (2R)-2-{[(5Sa)-5-(3-chloro-4-hydroxy-2-methylphenyl)-6-(thiophen-3-yl)thieno[2,3-d]pyrimidin-4-yl]oxy}-3-(2-methoxyphenyl)propanoate]: the “percentage fluorescence polarisation inhibition, Mcl-1 FP” value was 71.7 % @ 1000 uM.

The same test, now with this note: test compound at 10 uM; Method 1, or Method 2 where the value is underlined (underlining not visible).
Take `COc1ccccc1C[C@@H](Oc1ncnc2sc(-c3ccc(F)cc3)c(-c3ccc(OC)c(Cl)c3C)c12)C(=O)OCC(=O)N(C)C` [Example 845, 2-(dimethylamino)-2-oxoethyl (2R)-2-{[(5Sa)-5-(3-chloro-4-methoxy-2-methylphenyl)-6-(4-fluorophenyl)thieno[2,3-d]pyrimidin-4-yl]oxy}-3-(2-methoxyphenyl)propanoate]: the “percentage fluorescence polarisation inhibition (Mcl-1 FP), partial inhibitors” value worked out at 7.85% @ 10 uM.
